Assay results as given in patent publication US6358885B1, “Substituted phenylheterocyclic herbicides” (Mississippi State University, priority 1992, dated 2002).

Legend:
Assay in all cases: Test B preemergence/postemergence greenhouse plant response rating 0 to 10
wild oat = assay type: in vivo, Avena fatua; settings: for Plant response rating, Wild oat: 0 to 10 scale
Outline: (§1)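 Postemergence treatment of plants two to eighteen cm tall ran alongside preemergence treatment of planted seed, each using compound in a non-phytotoxic solvent.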

rape = assay type: in vivo, Brassica napus; settings: for Plant response rating, Rape: 0 to 10 scale
Outline: as §1

velvetleaf = assay type: in vivo, Abutilon theophrasti; settings: for Plant response rating, Velvetleaf: 0 to 10 scale
Outline: as §1

chickweed = assay type: in vivo, Stellaria media; settings: for Plant response rating, Chickweed: 0 to 10 scale
Outline: as §1

wild buckwheat = assay type: in vivo, Polygonum convolvulus; settings: for Plant response rating, Wild buckwheat: 0 to 10 scale
Outline: as §1

soybean = assay type: in vivo, Glycine max; settings: for Plant response rating, Soybean: 0 to 10 scale
Outline: as §1

rice = assay type: in vivo, Oryza sativa; settings: for Plant response rating, Rice: 0 to 10 scale
Outline: as §1

sugar beet = assay type: in vivo, Beta vulgaris; settings: for Plant response rating, Sugar beet: 0 to 10 scale
Outline: as §1

sorghum = assay type: in vivo, Sorghum bicolor; settings: for Plant response rating, Sorghum: 0 to 10 scale
Outline: as §1

cotton = assay type: in vivo, Gossypium hirsutum; settings: for Plant response rating, Cotton: 0 to 10 scale
Outline: as §1

cocklebur = assay type: in vivo, Xanthium pensylvanicum; settings: for Plant response rating, Cocklebur: 0 to 10 scale
Outline: as §1

giant foxtail = assay type: in vivo, Setaria faberii; settings: for Plant response rating, Giant foxtail: 0 to 10 scale
Outline: as §1

bedstraw = assay type: in vivo, Galium aparine; settings: for Plant response rating, Bedstraw: 0 to 10 scale
Outline: as §1

lambsquarters = assay type: in vivo, Chenopodium album; settings: for Plant response rating, Lambsquarter: 0 to 10 scale
Outline: as §1

morningglory = assay type: in vivo, Ipomoea hederacea; settings: for Plant response rating, Morningglory: 0 to 10 scale
Outline: as §1

barley = assay type: in vivo, Hordeum vulgare; settings: for Plant response rating, Barley: 0 to 10 scale
Outline: as §1

blackgrass = assay type: in vivo, Alopecurus myosuroides; settings: for Plant response rating, Blackgrass: 0 to 10 scale
Outline: as §1

crabgrass = assay type: in vivo, Digitaria spp.; settings: for Plant response rating, Crabgrass: 0 to 10 scale
Outline: as §1

corn = assay type: in vivo, Zea mays; settings: for Plant response rating, Corn: 0 to 10 scale
Outline: as §1

barnyardgrass = assay type: in vivo, Echinochloa crus-galli; settings: for Plant response rating, Barnyardgrass: 0 to 10 scale
Outline: as §1

cheatgrass = assay type: in vivo, Bromus secalinus; settings: for Plant response rating, Cheatgrass: 0 to 10 scale
Outline: as §1

wheat = assay type: in vivo, Triticum aestivum; settings: for Plant response rating, Wheat: 0 to 10 scale
Outline: as §1

purple nutsedge = assay type: in vivo, Cyperus rotundus; settings: for Plant response rating, Nutsedge: 0 to 10 scale
Outline: as §1

## Oc1cc(-c2nn3c(c2Br)CCCC3)c(F)cc1Cl [Compound 81]
Wild oat; POSTEMERGENCE, Rate 50 g/ha
  Plant response rating, Wild oat: 2
Wild oat; PREEMERGENCE, Rate 50 g/ha
  Plant response rating, Wild oat: 0
Wild oat; PREEMERGENCE, Rate 200 g/ha
  Plant response rating (0 to 10 scale), Wild oat: 3
Wild oat; Rate 200 g/ha, POSTEMERGENCE
  Plant response rating, Wild oat: 3
rape; POSTEMERGENCE, Rate 50 g/ha
  Plant response rating, Rape: 3
rape; PREEMERGENCE, Rate 50 g/ha
  Plant response rating, Rape: 0
rape; PREEMERGENCE, Rate 200 g/ha
  Plant response rating (0 to 10 scale), Rape: 7
rape; Rate 200 g/ha, POSTEMERGENCE
  Plant response rating, Rape: 7
velvetleaf; POSTEMERGENCE, Rate 50 g/ha
  Plant response rating, Velvetleaf: 9
velvetleaf; PREEMERGENCE, Rate 50 g/ha
  Plant response rating, Velvetleaf: 3
velvetleaf; PREEMERGENCE, Rate 200 g/ha
  Plant response rating (0 to 10 scale), Velvetleaf: 10
velvetleaf; Rate 200 g/ha, POSTEMERGENCE
  Plant response rating, Velvetleaf: 10
chickweed; POSTEMERGENCE, Rate 50 g/ha
  Plant response rating, Chickweed: 2
chickweed; PREEMERGENCE, Rate 50 g/ha
  Plant response rating, Chickweed: 0
chickweed; PREEMERGENCE, Rate 200 g/ha
  Plant response rating (0 to 10 scale), Chickweed: 9
chickweed; Rate 200 g/ha, POSTEMERGENCE
  Plant response rating, Chickweed: 3
Wild buckwheat; POSTEMERGENCE, Rate 50 g/ha
  Plant response rating, Wild buckwheat: 10
Wild buckwheat; PREEMERGENCE, Rate 50 g/ha
  Plant response rating, Wild buckwheat: 0
Wild buckwheat; PREEMERGENCE, Rate 200 g/ha
  Plant response rating (0 to 10 scale), Wild buckwheat: 10
Wild buckwheat; Rate 200 g/ha, POSTEMERGENCE
  Plant response rating, Wild buckwheat: 10
soybean; POSTEMERGENCE, Rate 50 g/ha
  Plant response rating, Soybean: 6
soybean; PREEMERGENCE, Rate 50 g/ha
  Plant response rating, Soybean: 0
soybean; PREEMERGENCE, Rate 200 g/ha
  Plant response rating (0 to 10 scale), Soybean: 0
soybean; Rate 200 g/ha, POSTEMERGENCE
  Plant response rating, Soybean: 7
rice; POSTEMERGENCE, Rate 50 g/ha
  Plant response rating, Rice: 6
rice; PREEMERGENCE, Rate 50 g/ha
  Plant response rating, Rice: 0
rice; PREEMERGENCE, Rate 200 g/ha
  Plant response rating (0 to 10 scale), Rice: 0
rice; Rate 200 g/ha, POSTEMERGENCE
  Plant response rating, Rice: 6
Sugar beet; POSTEMERGENCE, Rate 50 g/ha
  Plant response rating, Sugar beet: 10
Sugar beet; PREEMERGENCE, Rate 50 g/ha
  Plant response rating, Sugar beet: 0
Sugar beet; PREEMERGENCE, Rate 200 g/ha
  Plant response rating (0 to 10 scale), Sugar beet: 9
Sugar beet; Rate 200 g/ha, POSTEMERGENCE
  Plant response rating, Sugar beet: 10
sorghum; POSTEMERGENCE, Rate 50 g/ha
  Plant response rating, Sorghum: 3
sorghum; PREEMERGENCE, Rate 50 g/ha
  Plant response rating, Sorghum: 0
sorghum; PREEMERGENCE, Rate 200 g/ha
  Plant response rating (0 to 10 scale), Sorghum: 0
sorghum; Rate 200 g/ha, POSTEMERGENCE
  Plant response rating, Sorghum: 3
cotton; POSTEMERGENCE, Rate 50 g/ha
  Plant response rating, Cotton: 10
cotton; PREEMERGENCE, Rate 50 g/ha
  Plant response rating, Cotton: 0
cotton; PREEMERGENCE, Rate 200 g/ha
  Plant response rating (0 to 10 scale), Cotton: 0
cotton; Rate 200 g/ha, POSTEMERGENCE
  Plant response rating, Cotton: 10
cocklebur; POSTEMERGENCE, Rate 50 g/ha
  Plant response rating, Cocklebur: 8
cocklebur; PREEMERGENCE, Rate 50 g/ha
  Plant response rating, Cocklebur: 0
cocklebur; PREEMERGENCE, Rate 200 g/ha
  Plant response rating (0 to 10 scale), Cocklebur: 0
cocklebur; Rate 200 g/ha, POSTEMERGENCE
  Plant response rating, Cocklebur: 10
Giant foxtail; POSTEMERGENCE, Rate 50 g/ha
  Plant response rating, Giant foxtail: 4
Giant foxtail; PREEMERGENCE, Rate 50 g/ha
  Plant response rating, Giant foxtail: 0
Giant foxtail; PREEMERGENCE, Rate 200 g/ha
  Plant response rating (0 to 10 scale), Giant foxtail: 2
Giant foxtail; Rate 200 g/ha, POSTEMERGENCE
  Plant response rating, Giant foxtail: 8
bedstraw; POSTEMERGENCE, Rate 50 g/ha
  Plant response rating, Bedstraw: 9
bedstraw; PREEMERGENCE, Rate 50 g/ha
  Plant response rating, Bedstraw: 0
bedstraw; PREEMERGENCE, Rate 200 g/ha
  Plant response rating (0 to 10 scale), Bedstraw: 9
bedstraw; Rate 200 g/ha, POSTEMERGENCE
  Plant response rating, Bedstraw: 10
lambsquarters; POSTEMERGENCE, Rate 50 g/ha
  Plant response rating, Lambsquarter: 10
lambsquarters; PREEMERGENCE, Rate 50 g/ha
  Plant response rating, Lambsquarter: 9
lambsquarters; PREEMERGENCE, Rate 200 g/ha
  Plant response rating (0 to 10 scale), Lambsquarter: 10
lambsquarters; Rate 200 g/ha, POSTEMERGENCE
  Plant response rating, Lambsquarter: 10
morningglory; POSTEMERGENCE, Rate 50 g/ha
  Plant response rating, Morningglory: 9
morningglory; PREEMERGENCE, Rate 50 g/ha
  Plant response rating, Morningglory: 0
morningglory; PREEMERGENCE, Rate 200 g/ha
  Plant response rating (0 to 10 scale), Morningglory: 0
morningglory; Rate 200 g/ha, POSTEMERGENCE
  Plant response rating, Morningglory: 10
barley; POSTEMERGENCE, Rate 50 g/ha
  Plant response rating, Barley: 3
barley; PREEMERGENCE, Rate 50 g/ha
  Plant response rating, Barley: 0
barley; PREEMERGENCE, Rate 200 g/ha
  Plant response rating (0 to 10 scale), Barley: 0
barley; Rate 200 g/ha, POSTEMERGENCE
  Plant response rating, Barley: 3
blackgrass; POSTEMERGENCE, Rate 50 g/ha
  Plant response rating, Blackgrass: 2
blackgrass; PREEMERGENCE, Rate 50 g/ha
  Plant response rating, Blackgrass: 0
blackgrass; PREEMERGENCE, Rate 200 g/ha
  Plant response rating (0 to 10 scale), Blackgrass: 3
blackgrass; Rate 200 g/ha, POSTEMERGENCE
  Plant response rating, Blackgrass: 4
crabgrass; POSTEMERGENCE, Rate 50 g/ha
  Plant response rating, Crabgrass: 4
crabgrass; PREEMERGENCE, Rate 50 g/ha
  Plant response rating, Crabgrass: 0
crabgrass; PREEMERGENCE, Rate 200 g/ha
  Plant response rating (0 to 10 scale), Crabgrass: 0
crabgrass; Rate 200 g/ha, POSTEMERGENCE
  Plant response rating, Crabgrass: 6
corn; POSTEMERGENCE, Rate 50 g/ha
  Plant response rating, Corn: 2
corn; PREEMERGENCE, Rate 50 g/ha
  Plant response rating, Corn: 0
corn; PREEMERGENCE, Rate 200 g/ha
  Plant response rating (0 to 10 scale), Corn: 0
corn; Rate 200 g/ha, POSTEMERGENCE
  Plant response rating, Corn: 3
barnyardgrass; POSTEMERGENCE, Rate 50 g/ha
  Plant response rating, Barnyardgrass: 8
barnyardgrass; PREEMERGENCE, Rate 50 g/ha
  Plant response rating, Barnyardgrass: 0
barnyardgrass; PREEMERGENCE, Rate 200 g/ha
  Plant response rating (0 to 10 scale), Barnyardgrass: 0
barnyardgrass; Rate 200 g/ha, POSTEMERGENCE
  Plant response rating, Barnyardgrass: 7
cheatgrass; POSTEMERGENCE, Rate 50 g/ha
  Plant response rating, Cheatgrass: 3
cheatgrass; PREEMERGENCE, Rate 50 g/ha
  Plant response rating, Cheatgrass: 0
cheatgrass; PREEMERGENCE, Rate 200 g/ha
  Plant response rating (0 to 10 scale), Cheatgrass: 4
cheatgrass; Rate 200 g/ha, POSTEMERGENCE
  Plant response rating, Cheatgrass: 4
wheat; POSTEMERGENCE, Rate 50 g/ha
  Plant response rating, Wheat: 3
wheat; PREEMERGENCE, Rate 50 g/ha
  Plant response rating, Wheat: 0
wheat; PREEMERGENCE, Rate 200 g/ha
  Plant response rating (0 to 10 scale), Wheat: 2
wheat; Rate 200 g/ha, POSTEMERGENCE
  Plant response rating, Wheat: 4
Purple nutsedge; PREEMERGENCE, Rate 50 g/ha
  Plant response rating, Nutsedge: 0
Purple nutsedge; PREEMERGENCE, Rate 200 g/ha
  Plant response rating (0 to 10 scale), Nutsedge: 0
Purple nutsedge; Rate 200 g/ha, POSTEMERGENCE
  Plant response rating, Nutsedge: 3
